Earlier results in US10709686B2, “Methods for treating pulmonary fibrosis” (David Weinstein Consulting, Inc., priority 2018, dated 2020).

Assays:
FKBP52 = molecular target: T1, FKBP52 (Homo sapiens, UniProt Q02790); details: treatment of fibroblasts for 2 hours
T1 construct: endogenous in cells
T1 sequence (Q02790 1-459): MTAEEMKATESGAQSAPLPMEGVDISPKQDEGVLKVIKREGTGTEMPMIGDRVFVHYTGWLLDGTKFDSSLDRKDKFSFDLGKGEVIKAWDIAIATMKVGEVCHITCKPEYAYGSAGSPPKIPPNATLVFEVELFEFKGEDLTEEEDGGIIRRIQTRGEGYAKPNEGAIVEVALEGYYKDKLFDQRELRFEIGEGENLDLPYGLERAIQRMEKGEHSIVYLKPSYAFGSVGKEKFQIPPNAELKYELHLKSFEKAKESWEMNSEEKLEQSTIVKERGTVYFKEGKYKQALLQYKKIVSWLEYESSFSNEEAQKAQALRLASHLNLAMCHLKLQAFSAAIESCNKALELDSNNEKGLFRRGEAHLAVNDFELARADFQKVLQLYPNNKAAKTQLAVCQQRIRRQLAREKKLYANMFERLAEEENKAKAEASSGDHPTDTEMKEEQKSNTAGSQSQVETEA

[1] = molecular target: T2, FK506 binding protein 4 (FKBP52) (Homo sapiens, UniProt Q02790)
T2 sequence (Q02790 1-459): T1 sequence (Q02790 1-459)

CCC(C)(C)C(=O)C(=O)N1CCC[C@H]1C(=O)O [RT175]
Translocation of FKBP52 to the nucleus (FKBP52): results in the translocation of FKBP52 to the nucleus
Binding affinity to FKBP52 [1]: binds with high affinity
